Data set [1] in a line: Permeability of the compound at PH 7.4 by PAMPA. It is filed as ADME. The following applies: for Papp: read-out: permeability.
Data set [2] is described as follows: Oral bioavailability in rat at 5 mg/kg after 24 hrs. It counts as ADME, organism-based. Particulars: in vivo.
Data set [3] in a line: Drug uptake in rat liver at 5 mg/kg, po after 4 hrs. The following applies: read-out: Drug uptake. It counts as ADME, organism-based. The arrangement: dose 5 mg/kg, route oral.
A short description of data set [4]: Drug uptake in rat liver at 5 mg/kg, po after 24 hrs. It counts as ADME, organism-based. Particulars: read-out: Drug uptake. The arrangement: dose 5 mg/kg, route oral.
Data set [5] can be described thus: Plasma concentration in rat at 5 mg/kg, po after 4 hrs. The arrangement: dose 5 mg/kg, route oral. It is filed as ADME, organism-based.
A short description of data set [6]: AUC in rat at 5 mg/kg, po after 4 hrs. Particulars: plasma. It counts as ADME, organism-based. Details: time < 4 hr, dose 5 mg/kg, route oral.
A short description of data set [7]: Clearance in rat at 2 mg/kg, iv after 4 hrs. It is filed as ADME, organism-based. The arrangement: dose 2 mg/kg, route intravenous. Particulars: in vivo.
A short description of data set [8]: Clearance in rat at 2 mg/kg, iv after 24 hrs. It is filed as ADME, organism-based. Details: dose 2 mg/kg, route intravenous. Particulars: in vivo.
A short description of data set [9]: Volume of distribution in rat at 2 mg/kg, iv after 24 hrs. Particulars: in vivo. Details: dose 2 mg/kg, route intravenous. It is filed as ADME, organism-based.
Data set [10] is described as follows: AUC in rat at 5 mg/kg, po after 24 hrs. It is filed as ADME, organism-based. The arrangement: time < 24 hr, dose 5 mg/kg, route oral. The following applies: plasma.
The nature of data set [11]: Half life in rat at 2 mg/kg, iv after 24 hrs. It counts as ADME, organism-based. The following applies: in vivo. Details: dose 2 mg/kg, route intravenous.

Each structure is given as a SMILES string.

In the case of `COC(=O)N[C@@H](C(=O)N1CCC[C@H]1c1ncc(-c2ccc(-c3ccc(-c4cnc([C@@H]5CCCN5C(=O)[C@H](NC(=O)OC)c5ccccc5)[nH]4)cn3)cc2)[nH]1)c1ccccc1`, the Papp in [1] was found to be 177 nm/s.

Take `COC(=O)N[C@@H](C)C(=O)N1CCC[C@H]1c1ncc(-c2ccc(-c3ccc(-c4cnc([C@@H]5CCCN5C(=O)[C@H](NC(=O)OC)c5ccccc5)[nH]4)cc3)cc2)[nH]1`: the Papp in [1] turned out to be 363 nm/s.

For `COC(=O)N[C@@H](C(=O)N1CCC[C@H]1c1ncc(-c2ccc(-c3ccc(-c4cnc([C@@H]5CCCN5C(=O)[C@@H](C)NC(C)=O)[nH]4)cc3)cc2)[nH]1)c1ccccc1`, the Papp in [1] was determined as 28 nm/s.

Regarding `O=C(C(c1ccccc1)N1CC[C@H](F)C1)N1CCC[C@H]1c1ncc(-c2ccc(-c3ccc(-c4cnc([C@@H]5CCCN5C(=O)C(c5ccccc5)N5CC[C@H](F)C5)[nH]4)cc3)cc2)[nH]1` (stereo in doubt; 21), the permeability result in data set [1] is given as “impermeable”.

Consider `COC(=O)N[C@@H](C(=O)N1CCC[C@H]1c1ncc(-c2ccc(-c3ccc(-c4cnc([C@@H]5CCCN5C(C)=O)[nH]4)cc3)cc2)[nH]1)c1ccccc1`, for which the Papp in data set [1] worked out at 500 nm/s.

With `CC[C@H](NC(=O)OC)C(=O)N1CCC[C@H]1c1ncc(-c2ccc(-c3ccc(-c4cnc([C@@H]5CCCN5C(=O)[C@@H](c5ccccc5)N(CC)CC)[nH]4)cc3)cc2)[nH]1`, the bioavailability in [2] amounted to 4.3%. Besides, in [1], the Papp came to 363 nm/s. Moreover, the concentration at 4 h in data set [3] came out at 0.471 µM. For the same compound, in data set [4], the concentration at 24 h came to 0.132 µM.

Turning to `COC(=O)NC(C)(C)C(=O)N1CCC[C@H]1c1ncc(-c2ccc(-c3ccc(-c4cnc([C@@H]5CCCN5C(=O)C(C)(C)NC(=O)OC)[nH]4)cc3)cc2)[nH]1`, in data set [1], the Papp is 26 nm/s.

Consider `CCN(C)[C@@H](C(=O)N1CCC[C@H]1c1ncc(-c2ccc(-c3ccc(-c4cnc([C@@H]5CCCN5C(=O)[C@@H](c5ccccc5)N(C)CC)[nH]4)cc3)cc2)[nH]1)c1ccccc1`, for which the figures for the concentration at 4 h in data set [5] and in data set [3] were 0.002 µM and 1.98 µM, respectively. The compound also showed an AUC at 4 h in [6] of 6 nM·h. Moreover, in [7], the clearance turned out to be 5.28 L/h/kg. The Papp in [1] was found to be 106 nm/s.

Take `O=C([C@@H](c1ccccc1)N1CCOCC1)N1CCC[C@H]1c1ncc(-c2ccc(-c3ccc(-c4cnc([C@@H]5CCCN5C(=O)[C@@H](c5ccccc5)N5CCOCC5)[nH]4)cc3)cc2)[nH]1`: the values for the concentration at 4 h in [5] and in data set [3] were 0.011 µM and 0.239 µM, respectively. For the same compound, the exposure (AUC) at 4 h in data set [6] came out at 54 nM·h. Besides, the Papp in [1] was 349 nm/s.

Turning to `COC(=O)N[C@H](C(=O)N1CCC[C@H]1c1ncc(-c2ccc(-c3ccc(-c4cnc([C@@H]5CCCN5C(=O)[C@@H](NC(=O)OC)[C@@H](C)OC)[nH]4)cc3)cc2)[nH]1)[C@@H](C)OC`, the figures for the concentration at 4 h in [5] and in data set [3] were 0.121 µM and 0.453 µM, respectively. The compound also returned an AUC at 4 h in data set [6] of 472 nM·h. For the same compound, the Papp in data set [1] was found to be 275 nm/s.

Consider `COC(=O)N[C@@H](C(=O)N1CCC[C@H]1c1ncc(-c2ccc(-c3ccc(-c4cnc([C@@H]5CCCN5C(=O)[C@@H]5CCCO5)[nH]4)cc3)cc2)[nH]1)c1ccccc1`, for which the concentration at 4 h in data set [5] was 0.027 µM; in [3], 0.802 µM. The compound also gave an AUC at 4 h in data set [6] of 127 nM·h. Moreover, the Papp in data set [1] came to 480 nm/s.

In turn, `COC(=O)N[C@@H](C(=O)N1CCC[C@H]1c1ncc(-c2ccc(-c3ncc(-c4cnc([C@@H]5CCCN5C(=O)[C@H](NC(=O)OC)c5ccccc5)[nH]4)cn3)cc2)[nH]1)c1ccccc1` came in with a clearance in data set [8] of 2.16 L/h/kg. For the same compound, the Vd in data set [9] is 1.7 L/kg. The compound also registered an area under the curve (AUC) at 24 h in data set [10] of 21 nM·h. Further, the bioavailability in data set [2] was found to be 0.5%. Besides, in data set [1], the Papp turned out to be 186 nm/s. The compound further gave a half-life in data set [11] of 1.7 h.

As for `COC(=O)N[C@H](C)C(=O)N1CCC[C@H]1c1ncc(-c2ccc(-c3ccc(-c4cnc([C@@H]5CCCN5C(=O)[C@@H](C)NC(=O)OC)[nH]4)cc3)cc2)[nH]1`, the Papp in data set [1] is 47 nm/s.

With `CN(C)[C@@H](C(=O)N1CCC[C@H]1c1ncc(-c2ccc(-c3ccc(-c4cnc([C@@H]5CCCN5C(=O)[C@@H]5CCCO5)[nH]4)cc3)cc2)[nH]1)c1ccccc1`, the concentration at 4 h in [5] came to 0.027 µM; in data set [3], 0.563 µM. Also, the AUC at 4 h in [6] worked out at 62 nM·h. In addition, the Papp in data set [1] came out at 200 nm/s.

With `CCN(CC)[C@@H](C(=O)N1CCC[C@H]1c1ncc(-c2ccc(-c3ccc(-c4cnc([C@@H]5CCCN5C(=O)[C@@H](c5ccccc5)N5CCCCC5)[nH]4)cc3)cc2)[nH]1)c1ccccc1`, the Papp in data set [1] was 337 nm/s.

On to `COC(=O)N[C@@H](C(=O)N1CCC[C@H]1c1ncc(-c2ccc(-c3ccc(-c4cnc([C@@H]5CCCN5C(=O)CNC(C)=O)[nH]4)cc3)cc2)[nH]1)c1ccccc1`, for which the Papp in data set [1] stood at 12 nm/s.

In the case of `COC(=O)N[C@@H](C(=O)N1CCC[C@H]1c1ncc(-c2ccc(-c3ccc(-c4cnc([C@@H]5CCCN5C(=O)[C@H](NC(=O)OC)c5ccccc5)[nH]4)nc3)cc2)[nH]1)c1ccccc1`, the Papp in [1] was 179 nm/s.

For the compound `COC(=O)N[C@@H](C(=O)N1CCC[C@H]1c1ncc(-c2ccc(-c3ccc(-c4cnc([C@@H]5CCCN5C(=O)[C@H](C)NC(C)=O)[nH]4)cc3)cc2)[nH]1)c1ccccc1`, the Papp in data set [1] is 100 nm/s.

Take `CCN(CC)[C@@H](C(=O)N1CCC[C@H]1c1ncc(-c2ccc(-c3ccc(-c4cnc([C@@H]5CCCN5C(=O)[C@@H](NC(=O)OC)C(C)C)[nH]4)cc3)cc2)[nH]1)c1ccccc1`: the values for the concentration at 4 h in [5] and in data set [3] were 0.013 µM and 1.23 µM, respectively. Moreover, the AUC at 4 h in [6] amounted to 34 nM·h. Besides, the Papp in [1] was found to be 706 nm/s.

As to `COC(=O)NCC(=O)N1CCC[C@H]1c1ncc(-c2ccc(-c3ccc(-c4cnc([C@@H]5CCCN5C(=O)[C@H](NC(=O)OC)c5ccccc5)[nH]4)cc3)cc2)[nH]1`, the Papp in data set [1] is 164 nm/s. In data set [3], the concentration at 4 h amounted to 0.0262 µM.

Take `O=C([C@@H](c1ccccc1)N1CCCC1)N1CCC[C@H]1c1ncc(-c2ccc(-c3ccc(-c4cnc([C@@H]5CCCN5C(=O)[C@@H](c5ccccc5)N5CCCC5)[nH]4)cc3)cc2)[nH]1`: the concentration at 4 h is 0.0007 µM in [5] and 0.08 µM in data set [3]. Moreover, the AUC at 4 h in [6] worked out at 5 nM·h. In addition, in data set [1], the Papp was determined as 36 nm/s.

Take `CC[C@H](NC(=O)OC)C(=O)N1CCC[C@H]1c1ncc(-c2ccc(-c3ccc(-c4cnc([C@@H]5CCCN5C(=O)[C@H](CC)NC(=O)OC)[nH]4)cc3)cc2)[nH]1`: in data set [1], the Papp stood at 384 nm/s.

For the compound `CCOC(=O)N[C@@H](C)C(=O)N1CCC[C@H]1c1ncc(-c2ccc(-c3ccc(-c4cnc([C@@H]5CCCN5C(=O)[C@H](C)NC(=O)OCC)[nH]4)cc3)cc2)[nH]1`, the Papp in [1] turned out to be 451 nm/s.

With `COC(=O)NC1(C(=O)N2CCC[C@H]2c2ncc(-c3ccc(-c4ccc(-c5cnc([C@@H]6CCCN6C(=O)C6(NC(=O)OC)CC6)[nH]5)cc4)cc3)[nH]2)CC1`, the Papp in data set [1] was 2 nm/s.

For the compound `COC(=O)N[C@@H](C)C(=O)N1CCC[C@H]1c1ncc(-c2ccc(-c3ccc(-c4cnc([C@@H]5CCCN5C(=O)[C@H](C)NC(=O)OC)[nH]4)cc3)cc2)[nH]1`, the concentration at 4 h in data set [5] came to 0.057 µM; in data set [3] it was 0.134 µM. This compound registered an AUC at 4 h in [6] of 281 nM·h. Further, the Papp in data set [1] was 207 nm/s.

Regarding `COC(=O)N[C@H](C(=O)N1CCC[C@H]1c1ncc(-c2ccc(-c3ccc(-c4cnc([C@@H]5CCCN5C(=O)[C@@H](NC(=O)OC)C5CC5)[nH]4)cc3)cc2)[nH]1)C1CC1`, in [1], the Papp worked out at 500 nm/s.

These data come from ChEMBL document CHEMBL3120093 (J Med Chem, 2014).
